Data set [1] is described as follows: in vitro. To be noted: rabbit, rabbit erythrocytes.
Description: Hemolytic activity against rabbit erythrocytes incubated for 30 mins in presence of human serum and measured by hemolysis assay
Data set [2] can be described thus: Half-life in male Sprague-Dawley rat at 2.5 mg/kg, iv. The data set is classed as ADME, organism-based. Particulars: in vivo.
Data set [3] is described as follows: Half-life in male Sprague-Dawley rat at 10 mg/kg, po. To be noted: in vivo. The data set is classed as ADME, organism-based.
The nature of data set [4]: Cmax in male Sprague-Dawley rat at 10 mg/kg, po. Set-up: dose 10 mg/kg, route po. The data set is classed as ADME, organism-based. Particulars: in vivo.
A short description of data set [5]: Tmax in male Sprague-Dawley rat at 10 mg/kg, po. To be noted: in vivo. The data set is classed as ADME, organism-based.
Data set [6] in a line: Initial plasma concentration in male Sprague-Dawley rat at 2.5 mg/kg, iv. The data set is classed as ADME, organism-based.
The nature of data set [7]: AUClast in male Sprague-Dawley rat at 2.5 mg/kg, iv. Format: ADME, organism-based. Further details: time 0 - last, dose 2.5 mg/kg, route iv. To be noted: in vivo.
The nature of data set [8]: Clearance in male Sprague-Dawley rat at 2.5 mg/kg, iv. Format: ADME, organism-based. Particulars: in vivo.
The nature of data set [9]: Volume of distribution at steady state in male Sprague-Dawley rat at 2.5 mg/kg, iv. The data set is classed as ADME, organism-based. To be noted: in vivo, read-out: Vdss.
Data set [10] can be described thus: MRTlast at steady state in male Sprague-Dawley rat at 2.5 mg/kg, iv. The data set is classed as ADME, organism-based. Particulars: in vivo.
Data set [11] in a line: AUClast in male Sprague-Dawley rat at 10 mg/kg, po. Format: ADME, organism-based. Further details: time 0 - last, dose 10 mg/kg, route po. Particulars: in vivo.
A short description of data set [12]: MRTlast in male Sprague-Dawley rat at 10 mg/kg, po. To be noted: in vivo. The data set is classed as ADME, organism-based.
The nature of data set [13]: Oral bioavailability in male Sprague-Dawley rat at 10 mg/kg. The data set is classed as ADME, organism-based. Particulars: in vivo.
Data set [14] is described as follows: Cmax in male Sprague-Dawley rat at 2.5 mg/kg, iv. Format: ADME, organism-based. Further details: dose 2.5 mg/kg, route iv. Particulars: in vivo.
Data set [15] can be described thus: Tmax in male Sprague-Dawley rat at 2.5 mg/kg, iv. The data set is classed as ADME, organism-based. Particulars: in vivo.
Data set [16] is described as follows: AUC (0 to 24 hrs) in male Sprague-Dawley rat at 2.5 mg/kg, iv. Further details: time < 24 hr, dose 2.5 mg/kg, route iv. Format: ADME, organism-based. To be noted: in vivo.
The nature of data set [17]: AUC (0 to 24 hrs) in male Sprague-Dawley rat at 10 mg/kg, po. Format: ADME, organism-based. Further details: time < 24 hr, dose 10 mg/kg, route po. Particulars: in vivo.

`COC(=O)c1ccc2c(C(N)=O)nn(CC(=O)N(CC(=O)NCc3cccc(Cl)c3F)C3CC3)c2c1` gave a half-inhibitory concentration (IC50) at 30 min in data set [1] of 220 nM.

Regarding `NC(=O)c1nn(CC(=O)N(CC(=O)NCc2cccc(Cl)c2F)C2CC2)c2ccc(NC(=O)N3CCN(Cc4ccc(F)cc4)CC3)cc12`, the 50% inhibitory concentration (IC50) at 30 min in [1] turned out to be 17 nM.

For `CN1CCC(N(C)C(=O)Nc2ccc3c(c2)c(C(N)=O)nn3CC(=O)N(CC(=O)NCc2cccc(Cl)c2F)C2CC2)CC1`, the half-life in data set [2] was 24.6 min; in data set [3] it was 69 min. Also, in [4], the maximum concentration (Cmax) was found to be 113 ng/mL. Besides, the Tmax in [5] was found to be 30 min. The same compound gave a C0 in data set [6] of 9650 ng/mL. Further, the exposure AUC(0-t) amounted to 3130 ng·h/mL in [7] and 209 ng·h/mL in [11]. The clearance in [8] was 13.5 mL/min/kg. Further, in data set [9], the Vd was found to be 0.3 L/kg. For the same compound, the MRT last is 21 min in data set [10] and 119 min in data set [12]. The compound further gave a bioavailability in data set [13] of 1.7%. Also, the IC50 at 30 min in [1] turned out to be 30 nM.

As to `NC(=O)c1nn(CC(=O)N(CC(=O)NCc2cccc(Cl)c2F)C2CC2)c2ccc(NC(=O)NC3CCCCC3)cc12`, the 50% inhibitory concentration (IC50) at 30 min in [1] came out at 76 nM.

Compound `CCN(CC)CCNC(=O)Nc1ccc2c(c1)c(C(N)=O)nn2CC(=O)N(CC(=O)NCc1cccc(Cl)c1F)C1CC1` gave a 50% inhibitory concentration (IC50) at 30 min in data set [1] of 110 nM.

In data set [1], `NC(=O)c1nn(CC(=O)N(CC(=O)NCc2cccc(Cl)c2F)C2CC2)c2ccc(NC(=O)N3CCCC(F)(F)C3)cc12` yielded a 50% inhibitory concentration (IC50) at 30 min of 17 nM.

`NC(=O)c1nn(CC(=O)N(CC(=O)NCc2cccc(Cl)c2F)C2CC2)c2ccc(NC(=O)N3CCN(C4CC4)CC3)cc12`: the IC50 at 30 min in data set [1] was 64 nM.

With `NC(=O)c1nn(CC(=O)N2CCC[C@H]2C(=O)NCc2cccc(Cl)c2F)c2ccccc12`, the half-life in data set [2] is 298 min; in [3], 221 min. In addition, the Cmax in data set [14] is 6740 ng/mL; in data set [4], 69.3 ng/mL. For the same compound, the values for the Tmax in [15] and in data set [5] were 4.98 min and 30 min, respectively. The results for the AUC(0-t) at 24 h in data set [16] and in [17] were 3410 ng·h/mL and 257 ng·h/mL, respectively.

`CC(C)(C)OC(=O)Nc1ccc2c(c1)c(C(N)=O)nn2CC(=O)N(CC(=O)NCc1cccc(Cl)c1F)C1CC1` displayed an IC50 at 30 min in data set [1] of 34 nM.

In data set [1], `CC(C)(C)NC(=O)Nc1ccc2c(c1)c(C(N)=O)nn2CC(=O)N(CC(=O)NCc1cccc(Cl)c1F)C1CC1` showed an IC50 at 30 min of 73 nM.

One may read the IC50 as the concentration that gives 50% inhibition. A low value points to inhibition by little substance. As usually defined, the half-life is the time in which the quantity being followed falls by half. Usually Cmax stands for the highest concentration seen after dosing. As a reminder, the Tmax is the time at which the peak concentration occurs. What is called AUC(0-t) is exposure summed from dosing to a finite time, without extrapolation to infinity. Higher therefore signals high exposure. One may read the clearance as a measure of how efficiently the substance is removed, as volume per time. Low values mean a low capacity for elimination, high ones a high capacity for elimination. As a reminder, the MRT last is the average time that molecules of a dose stay in the body. The bioavailability is the share of a dose that reaches the circulation, judged against a reference dose that is usually intravenous. The low end stands for little systemic uptake, the high end for much systemic uptake.

Source of the values: ChEMBL document CHEMBL5214987, “Scaffold hopping via ring opening enables identification of acyclic compounds as new complement Factor D inhibitors” (Bioorg Med Chem, 2022).
